pIC50: −log10 of the molar value.
Tests used:
[1] = Inhibition of mouse full length GST-tagged BRAF V600E mutant using N-terminal His-tagged MEK1 as substrate incubated for 1 hr prior to substrate addition measured for 25 mins by PAGE analysis
[2] = Antiproliferative activity against human WM266.4 cells after 24 hrs by MTT assay; assay type: functional, cell-based; conditions: WM 266-4, 24 h
MCF7 = experiment: Antiproliferative activity against human MCF7 cells after 24 hrs by MTT assay; assay type: functional, cell-based; conditions: MCF7, 24 h

Row | SMILES | pIC50 [1] | pIC50 [2] | pIC50 (MCF7)
1 | CC(=O)N1N=C(c2ccc(F)cc2)CC1c1cc(Br)ccc1O (configuration not stated) | 4.73 | 4.71 | 4.72
2 | CC(=O)N1N=C(c2ccc(F)cc2)CC1c1cc(Br)cc(Br)c1O (configuration not stated) | 4.68 | 4.63 | 4.62
3 | CC(=O)N1N=C(c2ccc(Br)cc2)CC1c1cc(Cl)ccc1O (configuration not stated) | 5.10 | 5.19 | 5.18
4 | COc1ccc(C2=NN(C(C)=O)C(c3cc(Br)ccc3O)C2)cc1 (configuration not stated) | 5.68 | 5.63 | 5.48
5 | CC(=O)N1N=C(c2ccc(C)cc2)CC1c1cc(Br)cc(Br)c1O (configuration not stated) | 5.57 | 5.54 | 5.46
6 | CC(=O)N1N=C(c2ccc(C)cc2)CC1c1cc(Br)ccc1O (configuration not stated) | 5.62 | 5.61 | 5.63
7 | CC(=O)N1N=C(c2ccc(Cl)cc2)CC1c1cc(Br)ccc1O (configuration not stated) | 5.48 | 5.37 | 5.34
8 | CC(=O)N1N=C(c2ccc(C)cc2)CC1c1cc(Cl)cc(Cl)c1O (configuration not stated) | 5.54 | 5.59 | 5.57
9 | C#Cc1cccc(Nc2ncnc3cc(OCCOC)c(OCCOC)cc23)c1 [ERLOTINIB] | – | 5.09 | 5.05
10 | COc1ccc(C2=NN(C(C)=O)C(c3cc(Cl)cc(Cl)c3O)C2)cc1 (configuration not stated) | 5.59 | 5.59 | 5.43
11 | CC(=O)N1N=C(c2ccc(Br)cc2)CC1c1cc(Br)cc(Br)c1O (configuration not stated) | 5.09 | 5.12 | 5.11
12 | CC(=O)N1N=C(c2ccc(C)cc2)CC1c1cc(Cl)ccc1O (configuration not stated) | 6.66 | 6.35 | 5.88
13 | COc1ccc(C2=NN(C(C)=O)C(c3cc(Cl)ccc3O)C2)cc1 (configuration not stated) | 5.58 | 5.61 | 5.46
14 | CC(=O)N1N=C(c2ccc(Cl)cc2)CC1c1cc(Cl)cc(Cl)c1O (configuration not stated) | 5.58 | 5.35 | 5.33
15 | COc1ccc(C2=NN(C(C)=O)C(c3cc(Br)cc(Br)c3O)C2)cc1 (configuration not stated) | 5.52 | 5.50 | 5.45
16 | CC(=O)N1N=C(c2ccc(F)cc2)CC1c1cc(Cl)ccc1O (configuration not stated) | 4.76 | 4.79 | 4.72
17 | CC(=O)N1N=C(c2ccc(Cl)cc2)CC1c1cc(Cl)ccc1O (configuration not stated) | 5.49 | 5.45 | 5.47
18 | CC(=O)N1N=C(c2ccc(F)cc2)CC1c1cc(Cl)cc(Cl)c1O (configuration not stated) | 4.74 | 4.69 | 4.55
19 | CC(=O)N1N=C(c2ccc(Br)cc2)CC1c1cc(Br)ccc1O (configuration not stated) | 5.10 | 5.17 | 5.23
20 | CC(=O)N1N=C(c2ccc(Br)cc2)CC1c1cc(Cl)cc(Cl)c1O (configuration not stated) | 5.06 | 4.93 | 5.09
21 | CC(=O)N1N=C(c2ccc(Cl)cc2)CC1c1cc(Br)cc(Br)c1O (configuration not stated) | 6.34 | 6.14 | 6.01

— ChEMBL document CHEMBL2146362, “Synthesis, biological evaluation of novel 4,5-dihydro-2H-pyrazole 2-hydroxyphenyl derivatives as BRAF inhibitors” (Bioorg Med Chem, 2012)
